Drawing on PMC12040169 (PLOS Biology, 2025), this text covers viability for 58 compounds.

SMILES strings stand for the structures.

The nature of this series: in vitro. As to conditions: human, hela cells, % viability.
As usually defined, the viability is a read-out of living cells in per cent, often relative to untreated cells. Consider `CCCC(=O)Nc1cccc(NC(=O)c2nc[nH]n2)c1` [CBK269604], for which the viability at 28.5 h, 10 µM was 104%.
To `CCOC(=O)Cn1nc([N+](=O)[O-])c(Cl)c1C` [CBK269605] belongs 86.4%; to `COc1ccccc1N1CC(C(=O)Nc2ccc(C(=O)O)cc2)CC1=O` (stereo not shown) [CBK269606], 84.9%; to `CCC(=O)Nc1nonc1-c1nc2ccccc2n1Cc1ccc(F)cc1Cl` [CBK269608], 84.1%.
As for `CCN1CCN(S(=O)(=O)c2cccc3c(S(=O)(=O)N4CCN(CC)CC4)cccc23)CC1` [CBK269611], the viability at 28.5 h, 10 µM is 90.4%.
On to `Cc1ccc(S(=O)(=O)c2nc(NCCN3CCOCC3)sc2Cl)cc1` [CBK269615], for which the viability at 28.5 h, 10 µM stood at 79.7%.
Consider `Cc1cc(OC(C)C(=O)NCc2ccccn2)ccc1Cl` (stereo not shown) [CBK269617], for which the viability at 28.5 h, 10 µM was found to be 110%.
Consider `O=C(O)c1ccc(CNCc2ccc(-c3ccc(Cl)cc3)o2)cc1` [CBK269619C], for which the viability at 28.5 h, 10 µM amounted to 94.7%.
Turning to `O=C(Nc1cccnc1)C1CCN(S(=O)(=O)c2ccc(Oc3ccccc3)cc2)CC1` [CBK269621], the viability at 28.5 h, 10 µM came out at 81.8%.
Consider `CC(=O)N1CCN(c2ccc(NC(=O)c3cccc4c(Br)cccc34)cc2Cl)CC1` [CBK269624], for which the viability at 28.5 h, 10 µM was found to be 93.8%.
As to `CN1CCN(C(=O)CN(CC(=O)N2CCN(C)CC2)S(=O)(=O)c2ccc(Cl)cc2)CC1` [CBK269627], the viability at 28.5 h, 10 µM worked out at 96.6%.
Take `Cn1c(COc2ccccc2)nnc1SCc1nnc(-c2ccccc2)o1` [CBK269628]: the viability at 28.5 h, 10 µM was determined as 94.1%.
To `CN1CCN(CCCOc2ccccc2OCc2ccccc2)CC1` [CBK269630C] belongs 90.4%; to `Cc1ccc(SCCN2CCN(C)CC2)cc1` [CBK269631C], 89.2%; to `Cc1ccnc(SCc2c(Cl)cccc2[N+](=O)[O-])n1` [CBK269632], 86%.
On to `COc1ccc(CNc2cccc(C(=O)O)c2C)cc1OC` [CBK269634], for which the viability at 28.5 h, 10 µM is 109%.
Turning to `CC(Oc1ccccc1)C(=O)Nc1ccccc1NC(=O)c1ccco1` (stereo not shown) [CBK269636], the viability at 28.5 h, 10 µM is 88.4%.
Take `Cn1c(SCc2nnc(-c3ccccc3)o2)nnc1C(O)c1ccccc1` (stereo not shown) [CBK269640]: the viability at 28.5 h, 10 µM was found to be 92.3%.
To `COC(=O)c1cccc(COC(=O)c2ccc3nc(C)c(C)nc3c2)c1` [CBK269641] belongs 95.2%; to `CC(NC(=O)c1ccccc1)c1nnc(SCC(=O)N2CCOCC2)n1C` (stereo not shown) [CBK269647], 86%.
Take `COc1ccc(C)cc1S(=O)(=O)N(CC(=O)O)c1ccc(C)c(Cl)c1` [CBK269655]: the viability at 28.5 h, 10 µM came out at 83.3%.
`Cc1ccc(S(=O)(=O)N2CCOCC2)cc1C(=O)NCCc1ccccc1` [CBK269658]: the viability at 28.5 h, 10 µM was 99%.
As for `Cc1cccc(-c2nnc(-c3cccc(NC(=O)COc4ccccc4)c3)o2)c1` [CBK269659], the viability at 28.5 h, 10 µM amounted to 95.8%.
With `COc1ccc(NC(=O)c2ccc3c(c2)C(=O)N(Cc2ccncc2)C3=O)cc1` [CBK269660], the viability at 28.5 h, 10 µM was found to be 97.7%.
Regarding `Cc1nc2ccc(C(=O)OCc3ccc(S(=O)(=O)Cc4ccccc4)cc3)cc2nc1C` [CBK269661], the viability at 28.5 h, 10 µM stood at 97.6%.
As to `O=C(Nc1cccnc1)c1cccnc1C(=O)O` [CBK269663], the viability at 28.5 h, 10 µM turned out to be 90.1%.
Regarding `O=C(Nc1ccc(S(=O)(=O)NCc2ccncc2)cc1)c1ccccc1Cl` [CBK269664], the viability at 28.5 h, 10 µM was found to be 91.5%.
In the case of `Cc1cc(Cl)cc(Br)c1OCCN1CCN(C)CC1` [CBK269668C], the viability at 28.5 h, 10 µM stood at 93.9%.
In the case of `FC(F)(F)c1cccc(OCCN2CCOCC2)c1` [CBK269669C], the viability at 28.5 h, 10 µM came to 96.8%.
Take `COc1ccc([N+](=O)[O-])cc1CSc1nnc(-c2ccco2)n1C` [CBK269671]: the viability at 28.5 h, 10 µM is 89.3%.
Regarding `OCc1ccc(OCCCOc2cccc3cccnc23)cc1` [CBK269674], the viability at 28.5 h, 10 µM worked out at 85.8%.
Consider `Cc1cc(C)cc(OCC(=O)Nc2ccc3[nH]c(=O)[nH]c3c2)c1` [CBK269676], for which the viability at 28.5 h, 10 µM was found to be 99.5%.
With `Cc1ccc(S(=O)(=O)N2CCOCC2)cc1C(=O)NCc1ccco1` [CBK269677], the viability at 28.5 h, 10 µM came out at 102%.
With `CCn1c(SCC(=O)Nc2cc(Cl)ccc2O)nnc1-c1ccccc1` [CBK269680], the viability at 28.5 h, 10 µM was 87.4%.
Take `COc1cc(CNCCO)cc(Br)c1OCc1cccnc1` [CBK269681C]: the viability at 28.5 h, 10 µM was found to be 100%.
To `COc1cccc(CNc2ccc3c4c(cccc24)CC3)c1OC` [CBK269688] belongs 92.5%; to `CN1CCN(c2ccc(NC(=O)c3cccc(-c4cc5ccccc5oc4=O)c3)cc2Cl)CC1` [CBK269689], 83.5%.
With `CN1CCN(CCCCOc2ccc(Cc3ccccc3)cc2)CC1` [CBK269692C], the viability at 28.5 h, 10 µM turned out to be 91.6%.
To `COc1cc(OC)c(NC(=O)C(C)Oc2ccc(Cl)c(C)c2)cc1Cl` (stereo not shown) [CBK269697] belongs 89.7%.
For the compound `O=C(CSc1ccc2ccccc2c1)NCc1ccco1` [CBK269699], the viability at 28.5 h, 10 µM worked out at 80.3%.
As for `O=C(Nc1cc(-c2nc3ncccc3o2)ccc1Cl)c1cccnc1` [CBK269700], the viability at 28.5 h, 10 µM was 90.8%.
To `O=C(CSc1ccc(Br)cc1)NCc1ccco1` [CBK269701] belongs 86.5%; to `CC(C)C(=O)NC(=S)Nc1ccc2oc(-c3ccncc3)nc2c1` [CBK269702], 96.4%.
Consider `CN(Cc1ccccc1)C1(O)C(=O)Nc2ccc(Cl)cc21` (stereo not shown) [CBK269703], for which the viability at 28.5 h, 10 µM came to 95.9%.
On to `Cc1cc(Cl)c(S(=O)(=O)N(C)C)cc1OCC(=O)Nc1ccccc1` [CBK269705], for which the viability at 28.5 h, 10 µM amounted to 89%.
In the case of `Nc1cc(C(=O)c2ccc(Br)c(N)c2)ccc1Cl` [CBK269708], the viability at 28.5 h, 10 µM turned out to be 86.6%.
On to `O=C(Oc1ccc2c(c1)OCO2)c1cc(S(=O)(=O)N2CCOCC2)c(Cl)cc1Cl` [CBK269709], for which the viability at 28.5 h, 10 µM came to 101%.
On to `Cc1c(NC(=S)NC(=O)C(C)C)cccc1-c1nc2ncccc2o1` [CBK269712], for which the viability at 28.5 h, 10 µM came out at 98.3%.
Consider `COc1cccc(CNc2ccc(-c3nc4ncccc4o3)cc2)c1OC` [CBK269716], for which the viability at 28.5 h, 10 µM is 91%.
With `Cc1ccc(-c2nnc(COc3ccc(-c4cnc5ccccc5n4)cc3)o2)cc1` [CBK269721], the viability at 28.5 h, 10 µM was 90.9%.
Turning to `Cc1cccc(C(=O)NCc2nnc(SCC(=O)N3CCOCC3)n2C)c1` [CBK269723], the viability at 28.5 h, 10 µM was found to be 95.3%.
With `COc1ccccc1NC(=O)COc1ccc(C)cc1[N+](=O)[O-]` [CBK269724], the viability at 28.5 h, 10 µM stood at 81.6%.
As to `O=C(CC1(O)C(=O)N(Cc2ccc3c(c2)OCO3)c2ccccc21)c1ccccn1` (stereo not shown) [CBK269725], the viability at 28.5 h, 10 µM worked out at 94.2%.
Consider `CN1CCN(c2ccc(NC(=O)c3ccc([N+](=O)[O-])o3)cc2)CC1` [CBK269727], for which the viability at 28.5 h, 10 µM was 18.8%.
Take `Cc1ccc(-c2nnc(COC(=O)c3c4c(nc5ccccc35)CCCC4)o2)cc1` [CBK269728]: the viability at 28.5 h, 10 µM was found to be 105%.
To `O=C(Nc1cc(-c2nc3ncccc3o2)ccc1Cl)c1ccco1` [CBK269730] belongs 104%.
In the case of `Cc1cccc(CSc2nnc(C(C)NC(=O)c3ccccc3F)n2C)c1` (stereo not shown) [CBK269732], the viability at 28.5 h, 10 µM worked out at 91.6%.
`Cc1ccc(SCCCn2ccnc2)cc1` [CBK269733C]: the viability at 28.5 h, 10 µM is 86.3%.
